Data from ChEMBL document CHEMBL1201861, “Genomics of Drug Sensitity in Cancer screening data, Wellcome Trust Sanger Institute”.

Assays:
CAL-54 = experiment: cells; format: functional, cell-based; settings: Homo sapiens;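 further: growth inhibition of CAL-54 cells, read out by a viability measurement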
Description: SANGER: Inhibition of human CAL-54 cell growth in a cell viability assay.

NCI-H1623 = experiment: cells; format: functional, cell-based; settings: Homo sapiens;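 further: cell viability assay used as the read-out for growth inhibition of NCI-H1623 cells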
Description: SANGER: Inhibition of human NCI-H1623 cell growth in a cell viability assay.

MDA-MB-415 = experiment: cells; format: functional, cell-based; settings: Homo sapiens
HGC-27 = experiment: cells; format: functional, cell-based; settings: Homo sapiens;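 further: growth inhibition of human HGC-27 cells, read out in a cell viability assay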
Description: SANGER: Inhibition of human HGC-27 cell growth in a cell viability assay.

CESS = experiment: SANGER: Inhibition of human CESS cell growth in a cell viability assay.; format: functional, cell-based; settings: Homo sapiens, CESS
G-361 = experiment: cells; format: functional, cell-based; settings: Homo sapiens
MHH-CALL-2 = experiment: cells; format: functional, cell-based, Homo sapiens; settings: Homo sapiens, MHH-CALL-2;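 further: growth inhibition of the cell line, read out in a cell viability assay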
Description: SANGER: Inhibition of human MHH-CALL-2 cell growth in a cell viability assay.

C3A = experiment: cells; format: functional, cell-based; settings: Homo sapiens;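 further: growth inhibition of C3A human cells, quantified with a cell viability readout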
Description: SANGER: Inhibition of human C3A cell growth in a cell viability assay.

NB12 = experiment: cells; format: functional, cell-based; settings: Homo sapiens;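 further: growth inhibition of human NB12 cells, read out by a cell viability assay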
Description: SANGER: Inhibition of human NB12 cell growth in a cell viability assay.

ECC4 = experiment: cells; format: functional, cell-based, Homo sapiens; settings: Homo sapiens, ECC4;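 further: growth inhibition of ECC4 cells, read out with a cell viability assay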
Description: SANGER: Inhibition of human ECC4 cell growth in a cell viability assay.

NCI-H727 = experiment: cells; format: functional, cell-based; settings: Homo sapiens;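 further: growth inhibition of human NCI-H727 cells, read out with a cell viability assay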
Description: SANGER: Inhibition of human NCI-H727 cell growth in a cell viability assay.

CHL-1 = experiment: cells; format: functional, cell-based; settings: Homo sapiens;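 further: cell growth inhibition, read out with a cell viability assay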
Description: SANGER: Inhibition of human CHL-1 cell growth in a cell viability assay.

AN3-CA = experiment: cells; format: functional, cell-based; settings: Homo sapiens;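 further: growth inhibition of human AN3-CA cells measured by a cell viability assay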
Description: SANGER: Inhibition of human AN3-CA cell growth in a cell viability assay.

SK-MEL-30 = experiment: cells; format: functional, cell-based; settings: Homo sapiens;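 further: growth inhibition of SK-MEL-30 cells, determined with a cell viability assay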
Description: SANGER: Inhibition of human SK-MEL-30 cell growth in a cell viability assay.

NCI-H2122 = experiment: cells; format: functional, cell-based; settings: Homo sapiens;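 further: growth inhibition of the cells, read out with a cell viability assay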
Description: SANGER: Inhibition of human NCI-H2122 cell growth in a cell viability assay.

UMUC3 = experiment: cells; format: functional, cell-based; settings: Homo sapiens;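 further: growth inhibition of human UM-UC-3 cells, read out with a cell viability assay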
Description: SANGER: Inhibition of human UM-UC-3 cell growth in a cell viability assay.

COR-L279 = experiment: SANGER: Inhibition of human COR-L279 cell growth in a cell viability assay.; format: functional, cell-based; settings: Homo sapiens, COR-L279
GAMG = experiment: cells; format: functional, cell-based; settings: Homo sapiens;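 further: cell growth inhibition measured by a viability assay in the GAMG human cell line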
Description: SANGER: Inhibition of human GAMG cell growth in a cell viability assay.

HCC38 = experiment: cells; format: functional, cell-based; settings: Homo sapiens;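 further: cell viability assay on the human HCC38 cell line, with IC50 marking the concentration that inhibits cell growth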
Description: SANGER: Inhibition of human HCC38 cell growth in a cell viability assay.

TCC-SUP = experiment: cells; format: functional, cell-based; settings: Homo sapiens;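 further: growth inhibition of TCC-SUP cells, read out with a cell viability assay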
Description: SANGER: Inhibition of human TCCSUP cell growth in a cell viability assay.

SK-N-AS = experiment: cells; format: functional, cell-based; settings: Homo sapiens;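 further: growth inhibition of human SK-N-AS cells, measured with a cell viability assay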
Description: SANGER: Inhibition of human SK-N-AS cell growth in a cell viability assay.

SK-MEL-28 = experiment: cells; format: functional, cell-based; settings: Homo sapiens;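 further: growth inhibition of human SK-MEL-28 cells, read out with a cell viability assay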
Description: SANGER: Inhibition of human SK-MEL-28 cell growth in a cell viability assay.

SNU-423 = experiment: cells; format: functional, cell-based; settings: Homo sapiens
Description: SANGER: Inhibition of human SNU-423 cell growth in a cell viability assay.

RPMI 8402 = experiment: SANGER: Inhibition of human RPMI-8402 cell growth in a cell viability assay.; format: functional, cell-based; settings: Homo sapiens, RPMI 8402
CAMA-1 = experiment: cells; format: functional, cell-based; settings: Homo sapiens;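 further: growth inhibition of CAMA-1 cells, read out with a cell viability assay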
Description: SANGER: Inhibition of human CAMA-1 cell growth in a cell viability assay.

COLO-678 = experiment: cells; format: functional, cell-based; settings: Homo sapiens
Description: SANGER: Inhibition of human COLO-678 cell growth in a cell viability assay.

HOP-92 = experiment: cells; format: functional, cell-based; settings: Homo sapiens;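 further: cell viability readout, with IC50 reflecting inhibition of HOP-92 cell growth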
Description: SANGER: Inhibition of human HOP-92 cell growth in a cell viability assay.

SW948 = experiment: cells; format: functional, cell-based; settings: Homo sapiens;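 further: growth inhibition of SW948 cells, read out with a cell viability assay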
Description: SANGER: Inhibition of human SW948 cell growth in a cell viability assay.

WM-115 = experiment: cells; format: functional, cell-based; settings: Homo sapiens
Description: SANGER: Inhibition of human WM-115 cell growth in a cell viability assay.

ABC-1 = experiment: cells; format: functional, cell-based; settings: Homo sapiens;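 further: growth inhibition of human ABC-1 cells, read out by a cell viability assay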
Description: SANGER: Inhibition of human ABC-1 cell growth in a cell viability assay.

SJRH30 = experiment: cells; format: functional, cell-based; settings: Homo sapiens;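 further: growth inhibition of human SJRH30 cells, read out with a cell viability assay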
Description: SANGER: Inhibition of human SJRH30 cell growth in a cell viability assay.

DU-145 = experiment: cells; format: functional, cell-based; settings: Homo sapiens
Description: SANGER: Inhibition of human DU-145 cell growth in a cell viability assay.

NCI-H1703 = experiment: cells; format: functional, cell-based; settings: Homo sapiens;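 further: growth inhibition of NCI-H1703 cells, read out via a cell viability assay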
Description: SANGER: Inhibition of human NCI-H1703 cell growth in a cell viability assay.

EVSA-T = experiment: cells; format: functional, cell-based, Homo sapiens; settings: Homo sapiens, EVSA-T;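 further: growth inhibition of EVSA-T cells, read out with a cell viability assay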
Description: SANGER: Inhibition of human EVSA-T cell growth in a cell viability assay.

LC4-1 = experiment: cells; format: functional, cell-based, Homo sapiens; settings: Homo sapiens, LC4-1;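 further: growth inhibition of LC4-1 cells, read out with a cell viability assay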
Description: SANGER: Inhibition of human LC4-1 cell growth in a cell viability assay.

EC-GI-10 = experiment: cells; format: functional, cell-based, Homo sapiens; settings: Homo sapiens, EC-GI-10
Description: SANGER: Inhibition of human EC-GI-10 cell growth in a cell viability assay.

YT = experiment: cells; format: functional, cell-based, Homo sapiens; settings: Homo sapiens, YT
Description: SANGER: Inhibition of human YT cell growth in a cell viability assay.

SW1088 = experiment: cells; format: functional, cell-based; settings: Homo sapiens;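 further: growth inhibition of human SW1088 cells, read out by a cell viability assay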
Description: SANGER: Inhibition of human SW1088 cell growth in a cell viability assay.

H4 = experiment: cells; format: functional, cell-based; settings: Homo sapiens
Description: SANGER: Inhibition of human H4 cell growth in a cell viability assay.

CAL-72 = experiment: cells; format: functional, cell-based; settings: Homo sapiens;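 further: cell viability assay measuring inhibition of proliferation in the CAL-72 cell line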
Description: SANGER: Inhibition of human CAL-72 cell growth in a cell viability assay.

UACC-62 = experiment: cells; format: functional, cell-based; settings: Homo sapiens;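 further: growth inhibition of human UACC-62 cells, read out by a cell viability assay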
Description: SANGER: Inhibition of human UACC-62 cell growth in a cell viability assay.

Ca9-22 = experiment: cells; format: functional, cell-based; settings: Homo sapiens;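 further: growth inhibition of Ca9-22 cells, read out with a cell viability assay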
Description: SANGER: Inhibition of human Ca9-22 cell growth in a cell viability assay.

MDA-MB-134-VI = experiment: cells; format: functional, cell-based, Homo sapiens; settings: Homo sapiens, MDA-MB-134-VI
Description: SANGER: Inhibition of human MDA-MB-134-VI cell growth in a cell viability assay.

NB1 = experiment: cells; format: functional, cell-based, Homo sapiens; settings: Homo sapiens, NB1
Description: SANGER: Inhibition of human NB1 cell growth in a cell viability assay.

SiHa = experiment: cells; format: functional, cell-based; settings: Homo sapiens;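 further: Viability-based readout of growth inhibition in SiHa cells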
Description: SANGER: Inhibition of human SiHa cell growth in a cell viability assay.

HCC1599 = experiment: cells; format: functional, cell-based, Homo sapiens; settings: Homo sapiens, HCC1599;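 further: growth inhibition of HCC1599 cells, read out in a cell viability assay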
Description: SANGER: Inhibition of human HCC1599 cell growth in a cell viability assay.

HCC1937 = experiment: cells; format: functional, cell-based; settings: Homo sapiens;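 further: growth inhibition measured with a cell viability read-out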
Description: SANGER: Inhibition of human HCC1937 cell growth in a cell viability assay.

BHY = experiment: cells; format: functional, cell-based; settings: Homo sapiens;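 further: cell growth inhibition read out by a viability assay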
Description: SANGER: Inhibition of human BHY cell growth in a cell viability assay.

OE19 = experiment: cells; format: functional, cell-based; settings: Homo sapiens;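 further: growth inhibition of OE19 cells, measured through a cell viability read-out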
Description: SANGER: Inhibition of human OE19 cell growth in a cell viability assay.

HTC-C3 = experiment: cells; format: functional, cell-based; settings: Homo sapiens;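 further: inhibition of cell growth, read out with a cell viability assay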
Description: SANGER: Inhibition of human HTC-C3 cell growth in a cell viability assay.

KMS-12-PE = experiment: cells; format: functional, cell-based, Homo sapiens; settings: Homo sapiens, KMS-12-PE;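 further: growth inhibition of human KMS-12-PE cells, measured with a cell viability assay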
Description: SANGER: Inhibition of human KMS-12-PE cell growth in a cell viability assay.

CP66-MEL = experiment: cells; format: functional, cell-based; settings: Homo sapiens;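 further: growth inhibition of CP66-MEL cells determined in a cell viability assay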
Description: SANGER: Inhibition of human CP66-MEL cell growth in a cell viability assay.

LC-1F = experiment: cells; format: functional, cell-based, Homo sapiens; settings: Homo sapiens, LC-1F;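 further: growth inhibition of human LC-1F cells, read out with a cell viability assay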
Description: SANGER: Inhibition of human LC-1F cell growth in a cell viability assay.

NY = experiment: cells; format: functional, cell-based; settings: Homo sapiens
Description: SANGER: Inhibition of human NY cell growth in a cell viability assay.

SF-295 = experiment: cells; format: functional, cell-based; settings: Homo sapiens;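 further: growth inhibition of SF-295 cells, read out with a cell viability assay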
Description: SANGER: Inhibition of human SF295 cell growth in a cell viability assay.

AGS = experiment: cells; format: functional, cell-based; settings: Homo sapiens;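 further: growth inhibition of AGS cells, determined with a cell viability assay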
Description: SANGER: Inhibition of human AGS cell growth in a cell viability assay.

NCI-H1573 = experiment: cells; format: functional, cell-based; settings: Homo sapiens;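 further: growth inhibition of NCI-H1573 cells, read out with a cell viability assay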
Description: SANGER: Inhibition of human NCI-H1573 cell growth in a cell viability assay.

HSC-3 = experiment: cells; format: functional, cell-based; settings: Homo sapiens
Description: SANGER: Inhibition of human HSC-3 cell growth in a cell viability assay.

HOS = experiment: cells; format: functional, cell-based; settings: Homo sapiens;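 further: growth inhibition of human HOS cells, read out with a cell viability assay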
Description: SANGER: Inhibition of human HOS cell growth in a cell viability assay.

SK-MEL-24 = experiment: cells; format: functional, cell-based; settings: Homo sapiens;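 further: growth inhibition read out by a cell viability assay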
Description: SANGER: Inhibition of human SK-MEL-24 cell growth in a cell viability assay.

HuO9 = experiment: cells; format: functional, cell-based; settings: Homo sapiens;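 further: growth inhibition of HuO9 cells, read out with a cell viability assay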
Description: SANGER: Inhibition of human HuO9 cell growth in a cell viability assay.

Structure (SMILES): C/C(=C\c1csc(C)n1)[C@@H]1C[C@@H]2O[C@]2(C)CCC[C@H](C)[C@H](O)[C@@H](C)C(=O)C(C)(C)[C@@H](O)CC(=O)O1 [PATUPILONE]
- IC50 (CAL-54): > 0.032 µM
- IC50 (NCI-H1623): 0.0169 µM
- IC50 (MDA-MB-415): 0.02 µM
- IC50 (HGC-27): 0.000338 µM
- IC50 (CESS): 0.00338 µM
- IC50 (G-361): 0.000701 µM
- IC50 (MHH-CALL-2): > 0.032 µM
- IC50 (C3A): 0.00342 µM
- IC50 (NB12): > 0.032 µM
- IC50 (ECC4): > 0.032 µM
- IC50 (NCI-H727): 0.0018 µM
- IC50 (CHL-1): 0.000979 µM
- IC50 (AN3-CA): 0.000452 µM
- IC50 (SK-MEL-30): 0.00134 µM
- IC50 (NCI-H2122): 0.00041 µM
- IC50 (UMUC3): 0.00185 µM
- IC50 (COR-L279): 0.00927 µM
- IC50 (GAMG): 0.00178 µM
- IC50 (HCC38): 0.00383 µM
- IC50 (TCC-SUP): 0.0045 µM
- IC50 (SK-N-AS): > 0.032 µM
- IC50 (SK-MEL-28): > 0.032 µM
- IC50 (SNU-423): 0.00167 µM
- IC50 (RPMI 8402): 0.00445 µM
- IC50 (CAMA-1): 0.0129 µM
- IC50 (COLO-678): > 0.032 µM
- IC50 (HOP-92): > 0.032 µM
- IC50 (SW948): 0.0178 µM
- IC50 (WM-115): > 0.032 µM
- IC50 (ABC-1): 0.00168 µM
- IC50 (SJRH30): 0.0129 µM
- IC50 (DU-145): 0.000721 µM
- IC50 (NCI-H1703): 0.00776 µM
- IC50 (EVSA-T): 0.0307 µM
- IC50 (LC4-1): 0.0128 µM
- IC50 (EC-GI-10): > 0.032 µM
- IC50 (YT): 0.0187 µM
- IC50 (SW1088): 0.00579 µM
- IC50 (H4): 0.000975 µM
- IC50 (CAL-72): > 0.032 µM
- IC50 (UACC-62): > 0.032 µM
- IC50 (Ca9-22): 0.00113 µM
- IC50 (MDA-MB-134-VI): > 0.032 µM
- IC50 (NB1): 0.0146 µM
- IC50 (SiHa): > 0.032 µM
- IC50 (HCC1599): 0.0119 µM
- IC50 (HCC1937): > 0.032 µM
- IC50 (BHY): 0.000195 µM
- IC50 (OE19): 0.00466 µM
- IC50 (HTC-C3): 0.00294 µM
- IC50 (KMS-12-PE): > 0.032 µM
- IC50 (CP66-MEL): 0.0117 µM
- IC50 (LC-1F): > 0.032 µM
- IC50 (NY): 0.00156 µM
- IC50 (SF-295): 0.00192 µM
- IC50 (AGS): 0.00258 µM
- IC50 (NCI-H1573): 0.00642 µM
- IC50 (HSC-3): 0.000786 µM
- IC50 (HOS): 0.000215 µM
- IC50 (SK-MEL-24): > 0.032 µM

Structure (SMILES): Cc1ccc(C(=O)Nc2ccc(CN3CCN(C)CC3)c(C(F)(F)F)c2)cc1C#Cc1cnc2cccnn12 [PONATINIB]
- IC50 (CAL-54): > 0.512 µM
- IC50 (NCI-H1623): > 0.512 µM
- IC50 (MDA-MB-415): > 0.512 µM
- IC50 (HGC-27): 0.294 µM
- IC50 (CESS): > 0.512 µM
- IC50 (G-361): > 0.512 µM
- IC50 (MHH-CALL-2): > 0.512 µM
- IC50 (C3A): > 0.512 µM
- IC50 (NB12): > 0.512 µM
- IC50 (ECC4): > 0.512 µM
- IC50 (NCI-H727): > 0.512 µM
- IC50 (CHL-1): > 0.512 µM
- IC50 (AN3-CA): 0.0187 µM
- IC50 (SK-MEL-30): > 0.512 µM
- IC50 (NCI-H2122): > 0.512 µM
- IC50 (UMUC3): > 0.512 µM
- IC50 (COR-L279): > 0.512 µM
- IC50 (GAMG): > 0.512 µM
- IC50 (HCC38): > 0.512 µM
- IC50 (SK-N-AS): > 0.512 µM
- IC50 (SK-MEL-28): > 0.512 µM
- IC50 (SNU-423): > 0.512 µM
- IC50 (RPMI 8402): > 0.512 µM
- IC50 (CAMA-1): > 0.512 µM
- IC50 (COLO-678): > 0.512 µM
- IC50 (HOP-92): > 0.512 µM
- IC50 (SW948): > 0.512 µM
- IC50 (WM-115): > 0.512 µM
- IC50 (ABC-1): > 0.512 µM
- IC50 (SJRH30): > 0.512 µM
- IC50 (DU-145): > 0.512 µM
- IC50 (NCI-H1703): 0.196 µM
- IC50 (EVSA-T): > 0.512 µM
- IC50 (LC4-1): > 0.512 µM
- IC50 (EC-GI-10): > 0.512 µM
- IC50 (YT): 0.27 µM
- IC50 (SW1088): 0.444 µM
- IC50 (H4): 0.425 µM
- IC50 (CAL-72): > 0.512 µM
- IC50 (UACC-62): > 0.512 µM
- IC50 (Ca9-22): > 0.512 µM
- IC50 (MDA-MB-134-VI): > 0.512 µM
- IC50 (NB1): > 0.512 µM
- IC50 (SiHa): > 0.512 µM
- IC50 (HCC1599): > 0.512 µM
- IC50 (HCC1937): > 0.512 µM
- IC50 (BHY): > 0.512 µM
- IC50 (OE19): > 0.512 µM
- IC50 (HTC-C3): > 0.512 µM
- IC50 (KMS-12-PE): > 0.512 µM
- IC50 (CP66-MEL): > 0.512 µM
- IC50 (LC-1F): > 0.512 µM
- IC50 (NY): 0.193 µM
- IC50 (SF-295): > 0.512 µM
- IC50 (AGS): > 0.512 µM
- IC50 (HuO9): 0.0545 µM
- IC50 (HSC-3): > 0.512 µM
- IC50 (HOS): 0.504 µM
- IC50 (SK-MEL-24): 0.398 µM
